# Measurements from patent US4897379A, “N-[N^α -(1(S)-carboxy-3-cyclohexylpropyl)-L-lysyl]-N-cyclopentylglycine as antihypertensives” (Asahi Breweries Ltd., priority 1987, dated 1990).
# How the values were obtained:
# [1] = test system: angiotensin converting enzyme; conditions: Nature 288, 280 (1980); Chem. Pharm. Bull. 34, 1128 (1986); cited from earlier work
# rabbit lung ACE = molecular target: T1, rabbit lung ACE (Oryctolagus cuniculus, UniProt P12822); test: Inhibition of rabbit lung ACE by the method of Friedland and Silverstein; type: biochemical; conditions: for IC50: rabbit lung ACE, method of Friedland and Silverstein, read-out: IC50 (M) = Concentration inhibiting 50% of the activity of rabbit lung ACE
# T1 construct: from tissue; host or cells: rabbit lung
# T1 sequence (P12822 34-1310): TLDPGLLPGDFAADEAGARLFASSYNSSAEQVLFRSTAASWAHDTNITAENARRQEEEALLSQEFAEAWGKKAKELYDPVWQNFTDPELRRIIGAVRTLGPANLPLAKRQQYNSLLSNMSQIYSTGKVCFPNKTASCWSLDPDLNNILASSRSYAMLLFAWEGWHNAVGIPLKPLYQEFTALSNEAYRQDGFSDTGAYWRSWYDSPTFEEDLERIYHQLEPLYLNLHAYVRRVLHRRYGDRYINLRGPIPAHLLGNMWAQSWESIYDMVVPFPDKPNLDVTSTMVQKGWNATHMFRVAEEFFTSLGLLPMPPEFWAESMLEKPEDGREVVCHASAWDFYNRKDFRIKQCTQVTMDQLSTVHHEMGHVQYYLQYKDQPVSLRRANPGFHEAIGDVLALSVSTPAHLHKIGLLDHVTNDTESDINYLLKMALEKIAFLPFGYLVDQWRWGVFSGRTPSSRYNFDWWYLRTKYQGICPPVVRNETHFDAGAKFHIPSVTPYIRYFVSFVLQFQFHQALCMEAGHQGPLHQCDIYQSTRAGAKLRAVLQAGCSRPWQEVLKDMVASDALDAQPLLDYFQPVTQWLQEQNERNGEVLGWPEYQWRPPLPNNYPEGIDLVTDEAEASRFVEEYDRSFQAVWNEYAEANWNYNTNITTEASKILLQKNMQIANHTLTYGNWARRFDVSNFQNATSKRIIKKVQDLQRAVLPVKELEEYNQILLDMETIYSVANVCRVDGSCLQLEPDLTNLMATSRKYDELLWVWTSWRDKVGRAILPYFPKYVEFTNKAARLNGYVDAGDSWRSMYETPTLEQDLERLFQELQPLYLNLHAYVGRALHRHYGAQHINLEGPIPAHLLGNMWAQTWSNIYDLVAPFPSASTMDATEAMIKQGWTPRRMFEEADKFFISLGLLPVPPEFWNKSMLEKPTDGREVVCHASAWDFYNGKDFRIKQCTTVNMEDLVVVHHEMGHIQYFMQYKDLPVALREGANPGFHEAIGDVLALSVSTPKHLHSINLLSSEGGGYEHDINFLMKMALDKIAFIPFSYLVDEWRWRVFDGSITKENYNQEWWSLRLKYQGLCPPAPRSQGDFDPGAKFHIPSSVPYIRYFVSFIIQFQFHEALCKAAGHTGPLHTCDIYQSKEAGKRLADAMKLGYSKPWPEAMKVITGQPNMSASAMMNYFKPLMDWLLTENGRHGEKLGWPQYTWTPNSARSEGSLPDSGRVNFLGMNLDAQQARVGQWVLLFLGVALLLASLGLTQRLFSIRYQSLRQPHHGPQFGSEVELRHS
# Experimental: IC50 (M) = Concentration inhibiting 50% of the activity of rabbit
# lung ACE was determined by the method of Friedland and Silverstein.
Structure (SMILES),order of strength of activity [1],IC50 (rabbit lung ACE),"strength of activity relative to Lisinopril (rabbit lung ACE; ACE inhibition, compared with Lisinopril)"
CCOC(=O)[C@H](CCc1ccccc1)N[C@@H](C)C(=O)N(CC(=O)O)C1Cc2ccccc2C1 [CV-3317],Lisinopril>Enalapril>CV-3317,,
CCOC(=O)[C@H](CCc1ccccc1)N[C@@H](C)C(=O)N1CCC[C@H]1C(=O)O [Enalapril],Lisinopril>Enalapril>CV-3317,,
NCCCC[C@H](N[C@@H](CCc1ccccc1)C(=O)O)C(=O)N1CCC[C@H]1C(=O)O [Lisinopril],Lisinopril>Enalapril>CV-3317,1.1e-09 M,
NCCCC[C@H](N[C@@H](CCC1CCCCC1)C(=O)O)C(=O)N(CC(=O)O)C1CCCC1 [N-[N^α -(1(S)-carboxy-3-cyclohexylpropyl)-L-lysyl]-N-cyclopentylglycine],,1e-10 M,more than 10 times
